Data from US7763733B2, “Ritonavir analogous compound useful as retroviral protease inhibitor, preparation of the ritonavir analogous compound and pharmaceutical composition for the ritonavir analogous compound” (Cristalia Produtos Quimicos Farmaceuticos Ltda., priority 2004, dated 2010).

How the values were obtained:
HIV pNL4-3 (subtype B) = assay: Antiviral activity in HIV-infected MT-4 cells (MTT cellular viability); assay type: cell-based; details: MOI 0.002, MTT staining at the sixth day, ritonavir as internal control
Protocol: The anti-HIV activity of the compound of the present invention was determined using MT-4 cells, a lymphocytic cell line established in culture, CD4^+, and expressing HIV-1 […] co-receptors. The cells were infected using a plate having 96 wells containing 10^4 cells/well. The cells were infected with MOI (Multiplicity Of Infection) of 0.002 (NIH requirement=0.001 to 0.01). The drugs were initially diluted in dimethyl sulfoxide (DMSO) to a final concentration of 20 mM and later in RPMI 1640 base medium to a concentration of 200 μM. […] The culture medium utilized for this procedure was RPMI 1640 including 10% bovine fetal serum, antibiotics […]/penicillin and L-glutamine. The most concentrated well has a final concentration of 10.000 μM being followed by the indicated dilutions: 2.0 μM; 0.400 μM; 0.0800 μM; 0.016 μM; 0.0032 μM; 0.00064 μM and 0.000128 μM. The ninth well is considered as the infection control, without adding the drug. Each line having […] infected wells is produced in triplicate for later statistics analyses. […]
The infection test is maintained in an incubator having 5% of CO2 at 37° C. and monitored daily using phase optical microscopy method to verify appearance of syncytia (multinuclear cells). […]

HIV = details: anti-HIV activity test, values as described in U.S. Pat. No. 5,541,206; cited from earlier work

Compound | anti-HIV activity (EC50, FIG. 2) in comparison with ritonavir and analogs (HIV pNL4-3 (subtype B)) | IC50 (HIV) [nM]
CC(C)c1nc(CN(C)C(=O)N[C@H](C(=O)N[C@@H](Cc2ccccc2)C[C@H](O)[C@H](Cc2ccccc2)NC(=O)[C@@H](NC(=O)N(C)Cc2csc(C(C)C)n2)C(C)C)C(C)C)cs1 [example 1C, (2S,3S,5S)-2,5-bis-[N—[N—[[N-methyl-N-[(2-isopropyl-4-thiazolyl)methyl]amino]carbonyl]valinyl]amino]-1,6-diphenyl-3-hydroxyhexane] | surprisingly superior activity | 
CC(C)c1nc(CN(C)C(=O)NC(C(=O)NC(Cc2ccccc2)CC(O)C(Cc2ccccc2)NC(=O)OCc2cnc(C(C)C)s2)C(C)C)cs1 (stereo not shown) [example 45C] |  | 36 to 40
CC(C)Cc1nc(CN(C)C(=O)N[C@H](C(=O)N[C@@H](Cc2ccccc2)C[C@H](O)[C@H](Cc2ccccc2)NC(=O)OCc2cncs2)C(C)C)cs1 [example 59G] |  | 110 to 130
CC(C)c1nc(CN(C)C(=O)NC(C(=O)NC(Cc2ccccc2)CC(O)C(Cc2ccccc2)NC(=O)OCc2cncs2)C(C)C)cs1 [ritonavir, (2S,3S,5S)-5-[N—[N—[[N-methyl-N-[(2-isopropyl-4-thiazolyl)methyl]amino]carbonyl]vanilyl]amino-2-[N [(5-thiazolyl)methoxycarbonyl]amino-1,6-diphenyl-3-hydroxyhexane] |  | 25 to 40
